Experimental data published in PMC3006138, “Fexinidazole – A New Oral Nitroimidazole Drug Candidate Entering Clinical Development for the Treatment of Sleeping Sickness” (PLoS Neglected Tropical Diseases, 2010).

Assay: Hepatocyte intrinsic clearance and metabolite profile
Assay type: in vitro ADME, rat
Settings: male, Sprague Dawley, rat, cryopreserved hepatocytes, 1 µM
Method: Fexinidazole was incubated with cryopreserved hepatocytes from male CD-1 mice, male Sprague Dawley rats, male beagle dogs, male cynomolgus monkeys, and from pooled white or African-American human donor samples (purchased commercially), at concentrations of 1 µM and 10 µM. […] The incubated samples were analyzed by LC-MS after extraction into acetonitrile.
A quality control analysis of fexinidazole was performed via 1H-NMR in DMSO and LC- […]
provided by the Swiss Tropical Institute (Basel, Switzerland).
Reagents and solvents were of analytical grade and obtained from Sigma-Aldrich (St. Louis, […]
Cryopreserved hepatocytes from the male CD1 mouse, lot CSI; male Sprague Dawley rat, lot LPL; male beagle dog, lot BWX; male cynomolgus monkey, lot EHH; and pooled human samples, lot MJI, were purchased from In Vitro Technologies Inc (Baltimore, Maryland, […]
5.4. In vitro Incubations
On the day of the experiment a 10 mM stock solution of fexinidazole in DMSO was prepared and, within 3 hours, aliquots of this freshly prepared solution, after suitable dilution, were added to the incubation matrix, to reach fexinidazole final concentrations of 1 and 10 µM. The final percentage of DMSO was 0.01% in the incubation samples for the […]
On the day of experiment, the cryopreserved hepatocytes were thawed following the detailed instructions provided by the supplier.
The number of viable cells was determined using a Trypan Blue exclusion method.
5.4.1. Intrinsic Clearance Study […]
µM with mouse, rat, dog, monkey and human hepatocytes (300000 cells/mL for the mouse and 1 million cells/mL for the other species) in a final incubation volume of 0.75 mL […]
Incubations were performed in duplicate in a 48-well plate under shaking. Sampling was performed using an automatic liquid handling system (Multiprobe II EX, Packard). At 0, 1, 5, 10, 15, 20, 30, 60 and 120 minutes, 50 µL aliquots of the incubates were taken, then 80 µL of ice-cold acetonitrile and 20 µL of 1 µM warfarin in acetonitrile (internal standard) were added, and samples centrifuged at 2000 rpm for 20 min. The supernatant was analyzed by LC-MS/MS. […]
the medium alone at t = 0 and 120 minutes.
For the determination of phase I and phase II activity of hepatocytes, 7-ethoxycoumarin (7-EC) 1 µM, and 7-hydroxycoumarin (7-HC) 30 µM were used as positive controls and incubated under the same conditions as fexinidazole. Aliquots of incubates were taken at 0, 10, 20, 30, 60 and 120 minutes and processed as fexinidazole samples.
5.4.2. Metabolite Profile Study
For metabolite profiling, fexinidazole was incubated at a concentration of 10 µM with mouse, rat, dog, monkey and human hepatocytes (300000 cells/mL for the mouse and 1 million cells/mL for the other species) in a final incubation volume of 2 mL Leibovitz L-15 […]
Aliquots of the incubation samples were taken at t = 0, 30 and 120 minutes; the metabolism was stopped by the addition of an equal volume of cold acetonitrile and the samples centrifuged at 1500 rpm for 20 min. The supernatant was stored at -20°C until analysis. Control incubations were performed with the compound in the medium alone […]
5.5. Analysis of Samples for Intrinsic Clearance Determination
The analysis of the samples for intrinsic clearance determination was performed by an LC-MS/MS method, using the following conditions:
HPLC Equipment and Conditions
HPLC system Agilent 1100 binary pump (Agilent, Palo Alto, USA)
Autosampler CTC Pal (Alfatech, San Jose, USA)
Analytical column Guard Column SB-C8 4.6 x 12.5 mm, 5 µm (Zorbax)
Column temperature ambient
Mobile phase A 10 mM ammonium formate pH 4.0: acetonitrile (95:5, v:v)
Mobile phase B 10 mM ammonium formate pH 4.0: acetonitrile (5:95, v:v) […]
Gradient conditions Step Total time (min) flow (µL/min) %A % B […]
MS Equipment and Conditions
Mass spectrometer API 4000 Triple Quadrupole (MDS-Sciex, Toronto, […]
Source Turbo Ion Spray (TIS)
Ion mode Positive for fexinidazole and 7-EC.
Negative for 7-HC, 7-HC sulphate and 7-HC glucuronide.

SMILES: CSc1ccc(OCc2ncc([N+](=O)[O-])n2C)cc1 [Fexinidazole, 1-methyl-2-((p-(methylthio)phenoxy)methyl)-5-nitroimidazole]
- half-life at 1 µM: 1.2 min
- CLint scaled at 1 µM (read-out: CLint in vitro): > 3000 mL/min/kg
- hepatocyte CLint at 1 µM (read-out: CLint in vitro): 602 µL/min/1e6 cells
